According to PubChem BioAssay AID1963962 (Molecular Pharmacology Branch, DTP, NCI, 2024):
Where “and” joins values, the source holds several entries; their conditions need not be identical. Equal entries are not always repeated.

Tested on: 967376-340-R-J2-PDC multicell spheroid viability
Assay: Anticancer human tumor 967376-340-R-J2-PDC patient-derived colon adenocarcinoma cell line growth inhibition [PI3K]
Conditions: for viability, T/C: stronger effect = lower value
From the text: Combinatorial screen of targeted agents with the PI3K inhibitors inavolisib, alpelisib, duvelisib, and copanlisib in multi-cell type tumor spheroids
A high-throughput screen of multi-cell type tumor spheroids was designed to identify active combinations of targeted small molecules and PI3K pathway inhibitors. Complex spheroids include a stromal component modeled by human endothelial cells (HUVEC) and fibroblasts modeled by human mesenchymal stem cells (MSCs). The concentration ranges selected for each drug and investigational agent were based upon clinically achievable concentrations if the clinical Cmax of the agent was known.
Compounds. The drugs and investigational agents: inavolisib (NSC800729), alpelisib (NSC765974), duvelisib (NSC772469), copanlisib (NSC816437), ipatasertib (NSC767898), afuresertib (NSC778305), talazoparib (NSC767125), sapanisertib (NSC764658), selumetinib (NSC741078), tovorafenib (DAY101, NSC766906), vemurafenib (NSC761431), ravoxertinib (NSC781343), sotorasib (NSC818433), MRTX1133 (NSC 836407), abemaciclib (NSC 768073), palbociclib (NSC758247), venetoclax (NSC 766270), SY5609 (NSC837396), enzalutamide (NSC755605), and darolutamide (NSC825331), were obtained from the National Cancer Institute (NCI) Developmental Therapeutics Program Chemical Repository. The FDA-approved anticancer drug set is available from the NCI Developmental Therapeutics Program. […] The stock solutions were prepared in dimethyl sulfoxide (DMSO, Sigma-Aldrich, St. Louis, MO, cat. D2650) at 800-fold the tested concentration and stored at -70 degrees C prior to their use. All drugs and investigational agents were tested over a range starting from a high concentration at or near the clinical Cmax and decreasing in half-log increments. If the clinical Cmax for an agent had not been determined, the highest concentration tested was 10 microM.
Cell Culture. All cells were maintained in an incubator at 37 degrees C and 5% CO2 with 95% humidity. The PDC lines were cultured according to standard operating procedures established by the NCI PDMR (https://pdmr.cancer.gov/sops/default.htm). All PDCs were thawed and cultured in Matrigel-coated flasks prepared with a working solution of 1X Ham's F-12 nutrient mix, without supplementation (Invitrogen, Waltham, MA, cat. 11765054), 100 U/mL penicillin-streptomycin (Invitrogen, cat. 15140122), and 2.5% Matrigel (Corning Inc., Corning, NY, cat. 354248) for the first three passages. The 354836-022-R-J1-PDC, 475296-252-R-J1-PDC, and 997726-040-R-J2-PDC lines were cultured in 6A media, which includes advanced DMEM/F-12 (Thermo Fisher Scientific, cat. 12634028), 10 mM HEPES (Thermo Fisher Scientific, cat. 15630080), 1X GlutaMAX supplement (Thermo Fisher Scientific, cat. 35050061), 0.1 mg/mL primocin (InvivoGen, San Diego, CA, cat. ant-pm-2), 10% defined fetal bovine serum, heat inactivated (HyClone Laboratories Inc., Logan, UT, cat. SH30070.03HI), 50% L-WRN conditioned media (ATCC, cat. CRL-3276), 1.25 mM N-Acetyl-L-cysteine (Sigma-Aldrich, cat. A9165), 10 mM nicotinamide (Sigma-Aldrich, cat. N0636), 1X B-27 supplement (Thermo Fisher Scientific, cat. 17504044), 1X N-2 supplement (Thermo Fisher Scientific, cat. 17502048), and 10 microM Y-27632 dihydrochloride (Tocris Bioscience, Bristol, United Kingdom, cat. 1254). The 624824-186-R-J2-PDC line was cultured in 6C/Colon 1B media, which includes all 6A media components plus 50 ng/mL human EGF recombinant protein (Thermo Fisher Scientific, cat. PHG0311). […]

[1] = compound alone, run of 06/13/2023
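Note: spheroids exposed to agents for 7 days before read-out.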
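Throughout, for viability, T/C: luminescence used as surrogate of cell viability.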

## C#Cc1c(F)ccc2cc(O)cc(-c3ncc4c(N5CC6CCC(C5)N6)nc(OCC56CCCN5CC(F)C6)nc4c3F)c12 (stereo unspecified)
Compound 0.0316 µM
  viability, T/C: 106% [middle of 4 runs]
Compound 0.1 µM
  viability, T/C: 109% and 101% (2×) and 92.1%
Compound 3.16 µM
  viability, T/C: 91.7% [middle of 4 runs]
Curve of compound
  IC50: > 10 µM

## C=CC(=O)N1CCN(c2nc(=O)n(-c3c(C)ccnc3C(C)C)c3nc(-c4c(O)cccc4F)c(F)cc23)C(C)C1 (stereo unspecified)
Compound 0.0316 µM
  viability, T/C: 106% and 98.1% and 85.1%
Compound 0.1 µM
  viability, T/C: 87.2% and 75.8% and 115%
Compound 0.316 µM
  viability, T/C: 106% and 107% and 86.6%
Compound 1 µM
  viability, T/C: 97.1% and 124% and 96.3%
Compound 3.16 µM
  viability, T/C: 119% and 123% and 101%
Compound 10 µM
  viability, T/C: 112% and 107% and 119%
Curve of compound
  IC50: > 10 µM

## CC(=O)c1c(C)c2cnc(Nc3ccc(N4CCNCC4)cn3)nc2n(C2CCCC2)c1=O
Compound 0.000316 µM
  viability, T/C: 101% [middle of 4 runs]
Compound 0.001 µM
  viability, T/C: 95.8% [middle of 4 runs]
Compound 0.00316 µM
  viability, T/C: 103% [middle of 4 runs]
Compound 0.01 µM
  viability, T/C: 98.9% [middle of 4 runs]
Compound 0.0316 µM
  viability, T/C: 118% (2×) and 120% and 81.9%
Compound 0.1 µM
  viability, T/C: 79% [middle of 4 runs]
Curve of compound
  IC50: > 0.1 µM

## CC(C)NCC(C(=O)N1CCN(c2ncnc3c2C(C)CC3O)CC1)c1ccc(Cl)cc1 (stereo unspecified)
Compound 0.0316 µM
  viability, T/C: 107% [middle of 4 runs]
Compound 0.1 µM
  viability, T/C: 91.1% [middle of 4 runs]
Compound 0.316 µM
  viability, T/C: 90.2% [middle of 4 runs]
Compound 1 µM
  viability, T/C: 88% [middle of 4 runs]
Compound 3.16 µM
  viability, T/C: 103% [middle of 4 runs]
Compound 10 µM
  viability, T/C: 83.2% [middle of 4 runs]
Curve of compound
  IC50: > 10 µM

## CC(C)n1nc(-c2ccc3oc(N)nc3c2)c2c(N)ncnc21
Compound 0.000316 µM
  viability, T/C: 103% [middle of 4 runs]
Compound 0.00316 µM
  viability, T/C: 101% [middle of 4 runs]
Compound 0.0316 µM
  viability, T/C: 80.7% [middle of 4 runs]
Compound 0.1 µM
  viability, T/C: 59.2% [middle of 4 runs]
Curve of compound
  IC50: > 0.1 µM and 0.0967 µM

## CC(Cn1ccc(-c2ccc(C#N)c(Cl)c2)n1)NC(=O)c1cc(C(C)O)[nH]n1 (stereo unspecified)
Compound 0.0316 µM
  viability, T/C: 105% [middle of 4 runs]
Compound 0.1 µM
  viability, T/C: 99.6% [middle of 4 runs]
Compound 0.316 µM
  viability, T/C: 101% [middle of 4 runs]
Compound 1 µM
  viability, T/C: 101% [middle of 4 runs]
Compound 3.16 µM
  viability, T/C: 103% [middle of 4 runs]
Curve of compound
  IC50: > 10 µM

## CC(Nc1ccc2c(c1)OCCn1cc(N3C(=O)OCC3C(F)F)nc1-2)C(N)=O (stereo unspecified)
Compound 0.0316 µM
  viability, T/C: 86.9% [middle of 7 runs]
Compound 0.1 µM
  viability, T/C: 81.4% [middle of 7 runs]
Compound 0.316 µM
  viability, T/C: 67% [middle of 7 runs]
Compound 1 µM
  viability, T/C: 52.7% [middle of 7 runs]

## CC(Nc1ncnc2nc[nH]c12)c1cc2cccc(Cl)c2c(=O)n1-c1ccccc1 (stereo unspecified)
Compound 0.0316 µM
  viability, T/C: 94.5% [middle of 8 runs]
Compound 0.316 µM
  viability, T/C: 89% [middle of 8 runs]
Compound 1 µM
  viability, T/C: 94.5% [middle of 8 runs]
[1]
  IC50: > 10 µM

## CC1(C)CCC(CN2CCN(c3ccc(C(=O)NS(=O)(=O)c4ccc(NCC5CCOCC5)c([N+](=O)[O-])c4)c(Oc4cnc5[nH]ccc5c4)c3)CC2)=C(c2ccc(Cl)cc2)C1
Compound 0.0316 µM
  viability, T/C: 99.2% [middle of 4 runs]
Compound 0.1 µM
  viability, T/C: 94.1% [middle of 4 runs]
Compound 0.316 µM
  viability, T/C: 88.6% [middle of 4 runs]
Compound 1 µM
  viability, T/C: 88.1% [middle of 4 runs]
Compound 3.16 µM
  viability, T/C: 89.6% [middle of 4 runs]
Curve of compound
  IC50: > 10 µM

## CC1(C)CCC(Nc2ncc(C(F)(F)F)c(-c3c[nH]c4c(P(C)(C)=O)c(C#N)ccc34)n2)CN1 (stereo unspecified)
Compound 0.0316 µM
  viability, T/C: 88.9% [middle of 4 runs]
Compound 0.316 µM
  viability, T/C: 73.3% [middle of 4 runs]
Compound 1 µM
  viability, T/C: 71.2% [middle of 4 runs]
Compound 3.16 µM
  viability, T/C: 69.4% [middle of 4 runs]
Compound 10 µM
  viability, T/C: 48.1% [middle of 4 runs]
Curve of compound
  IC50: 9.93 µM and > 10 µM and 2.51 µM

## CCCS(=O)(=O)Nc1ccc(F)c(C(=O)c2c[nH]c3ncc(-c4ccc(Cl)cc4)cc23)c1F
Compound 0.0316 µM
  viability, T/C: 102% [middle of 4 runs]
Compound 0.1 µM
  viability, T/C: 87.8% [middle of 4 runs]
Compound 0.316 µM
  viability, T/C: 94.6% [middle of 4 runs]
Compound 3.16 µM
  viability, T/C: 104% [middle of 4 runs]
Compound 10 µM
  viability, T/C: 56.4% [middle of 4 runs]
Curve of compound
  IC50: > 10 µM and 9.14 µM

## CCN1CCN(Cc2ccc(Nc3ncc(F)c(-c4cc(F)c5nc(C)n(C(C)C)c5c4)n3)nc2)CC1
Compound 0.00316 µM
  viability, T/C: 110% [middle of 4 runs]
Compound 0.01 µM
  viability, T/C: 93.5% [middle of 4 runs]
Compound 0.0316 µM
  viability, T/C: 94.2% [middle of 4 runs]
Compound 0.1 µM
  viability, T/C: 82% [middle of 4 runs]
Compound 0.316 µM
  viability, T/C: 87% [middle of 4 runs]
Compound 1 µM
  viability, T/C: 74% [middle of 4 runs]
Curve of compound
  IC50: > 1 µM

## CNC(=O)c1ccc(N2C(=S)N(c3ccc(C#N)c(C(F)(F)F)c3)C(=O)C2(C)C)cc1F
Compound 0.1 µM
  viability, T/C: 94.8% (2×) and 84.5% and 88.3%
Compound 0.316 µM
  viability, T/C: 96.1% [middle of 4 runs]
Compound 1 µM
  viability, T/C: 87.2% [middle of 4 runs]
Compound 10 µM
  viability, T/C: 102% [middle of 4 runs]
Curve of compound
  IC50: > 10 µM

## COc1c(OCCCN2CCOCC2)ccc2c3n(c(=NC(=O)c4cnc(N)nc4)nc12)CCN3
Compound 0.01 µM
  viability, T/C: 85.7% [middle of 8 runs]
Compound 0.0316 µM
  viability, T/C: 79.9% [middle of 8 runs]
Compound 0.1 µM
  viability, T/C: 60.7% [middle of 8 runs]
Compound 0.316 µM
  viability, T/C: 47.8% [middle of 8 runs]
Compound 1 µM
  viability, T/C: 38.5% [middle of 8 runs]
[1]
  IC50: 212 nM [middle of 8 runs]

## C[C@@H](NC(=O)c1ncnc(N)c1Cl)c1ncc(C(=O)Nc2cc(C(F)(F)F)c(Cl)cn2)s1
Compound 0.1 µM
  viability, T/C: 95.8% [middle of 4 runs]
Compound 0.316 µM
  viability, T/C: 94% [middle of 4 runs]
Compound 1 µM
  viability, T/C: 110% [middle of 4 runs]
Compound 3.16 µM
  viability, T/C: 107% [middle of 4 runs]
Compound 10 µM
  viability, T/C: 109% [middle of 4 runs]
Curve of compound
  IC50: > 10 µM

## Cc1nc(NC(=O)N2CCCC2C(N)=O)sc1-c1ccnc(C(C)(C)C(F)(F)F)c1 (stereo unspecified)
Compound 0.1 µM
  viability, T/C: 85.3% [middle of 8 runs]
Compound 0.316 µM
  viability, T/C: 80.7% [middle of 8 runs]
Compound 1 µM
  viability, T/C: 73.6% [middle of 8 runs]
Compound 3.16 µM
  viability, T/C: 64.3% [middle of 8 runs]
Compound 10 µM
  viability, T/C: 45.7% [middle of 8 runs]

## Cn1cnc2c(F)c(Nc3ccc(Br)cc3Cl)c(C(=O)NOCCO)cc21
Compound 0.00949 µM
  viability, T/C: 89.9% [middle of 4 runs]
Compound 0.03 µM
  viability, T/C: 97.7% [middle of 4 runs]
Compound 0.0949 µM
  viability, T/C: 87.6% [middle of 4 runs]

## Cn1ncc(Cl)c1-c1cc(C(=O)NC(CN)Cc2cccc(F)c2)sc1Cl (stereo unspecified)
Compound 0.0316 µM
  viability, T/C: 107% [middle of 4 runs]
Compound 0.316 µM
  viability, T/C: 91.2% [middle of 4 runs]
Compound 3.16 µM
  viability, T/C: 81.3% [middle of 4 runs]
Compound 10 µM
  viability, T/C: 76.4% [middle of 4 runs]
Curve of compound
  IC50: > 10 µM

## Cn1nccc1Nc1nccc(-c2ccn(C(CO)c3ccc(Cl)c(F)c3)c(=O)c2)n1 (stereo unspecified)
Compound 0.0316 µM
  viability, T/C: 100% [middle of 4 runs]
Compound 0.1 µM
  viability, T/C: 94.5% [middle of 4 runs]
Compound 0.316 µM
  viability, T/C: 101% (2×) and 95.3% and 76.4%
Compound 10 µM
  viability, T/C: 99.5% [middle of 4 runs]
Curve of compound
  IC50: > 10 µM

## Cn1ncnc1[C@H]1c2n[nH]c(=O)c3cc(F)cc(c23)N[C@@H]1c1ccc(F)cc1
Compound 0.000316 µM
  viability, T/C: 78.6% and 114% and 95.8%
Compound 0.001 µM
  viability, T/C: 82.5% and 93.1% and 84.2%
Compound 0.00316 µM
  viability, T/C: 90.3% and 94.6% and 70.5%
Compound 0.01 µM
  viability, T/C: 103% and 104% and 90.4%
Compound 0.0316 µM
  viability, T/C: 93.2% and 88.8% and 97.9%
Compound 0.1 µM
  viability, T/C: 92.5% and 99.6% and 94.7%
Curve of compound
  IC50: > 0.1 µM
